# Assay results as given in patent publication US8110371B2, “Identifying organ damage” (The University Court of the University of Edinburgh, priority 2007, dated 2012).
# How the values were obtained:
# [1] = NAC as antidote for APAP overdose; cited from earlier work
# [2] = Exosomal protein concentration of urine in paracetamol overdose patients (BCA protein assay); assay type: in vivo, human; settings: 4 hours after paracetamol overdose
# Protocol: (§1) Six normal male volunteers (aged 23-40, MREC ethics approval number 06/MRE00/67) provided urine samples in sterile 50 ml plastic containers. To each urine sample a protease inhibitor was added (50:1 of 1 mM Leupeptin). […] 3 out of 6 of these patients had elevated serum alanine transaminase (ALT) 24 hours after admission indicating significant liver injury. The samples were centrifuged at 15000×g for 15 minutes at 4° C. to pellet the urinary sediment. The ‘15000×g supernatant’ was then centrifuged at 100 000 rpm for 1 hour at 4° C. to obtain low density urinary exosome pellets. The 100 000 rpm supernatant was decanted and replaced with an additional ‘15 000×g supernatant’ and ultracentrifuged again. The ultracentrifugation step was repeated 4-6 more times to harvest the exosome pellets from 18-24 ml of 15 000×g supernatant. Pellets were resuspended in 50 μl isolation solution (10 mM triethanolamine/250 mM sucrose (pH 7.6)).
# (§2) The amount of urine and MP protein was determined using the BCA™ Protein Assay Kit (Pierce, USA) and following the manufacturer's instructions. 20 μg of normal urine exosome samples were loaded per well. Loading amounts for each of the paracetemol overdose samples were normalised for urinary creatinine to account for differences in urine concentration. […]
# [3] = tested on: c-Jun; test: Western blot for c-Jun in urine exosomes of paracetamol overdose patients; assay type: in vivo, human; settings: following paracetamol-induced liver injury in humans, FIG. 7
# Protocol: as §1, §2
Structure (SMILES),patients with adverse reactions [1],increase in exosomal proteinuria compared to normal ([2]; pooled sample from 3 patients with organ injury) [fold],increase in exosomal protein compared to normal healthy individuals ([2]; pooled samples from 3 patients without organ injury),urinary microparticle concentration of C-Jun protein [3]
CC(=O)N[C@@H](CS)C(=O)O [N-acetylcysteine],around 15%,,,
"CC(=O)Nc1ccc(O)cc1 [paracetamol, N-(4-hydroxyphenyl)ethanamide]",,~37,about 7 fold,increased
